The test concerns the target T1, Human TG2 (Homo sapiens, UniProt P21980).
T1 construct: made in house
T1 sequence (P21980 1-687): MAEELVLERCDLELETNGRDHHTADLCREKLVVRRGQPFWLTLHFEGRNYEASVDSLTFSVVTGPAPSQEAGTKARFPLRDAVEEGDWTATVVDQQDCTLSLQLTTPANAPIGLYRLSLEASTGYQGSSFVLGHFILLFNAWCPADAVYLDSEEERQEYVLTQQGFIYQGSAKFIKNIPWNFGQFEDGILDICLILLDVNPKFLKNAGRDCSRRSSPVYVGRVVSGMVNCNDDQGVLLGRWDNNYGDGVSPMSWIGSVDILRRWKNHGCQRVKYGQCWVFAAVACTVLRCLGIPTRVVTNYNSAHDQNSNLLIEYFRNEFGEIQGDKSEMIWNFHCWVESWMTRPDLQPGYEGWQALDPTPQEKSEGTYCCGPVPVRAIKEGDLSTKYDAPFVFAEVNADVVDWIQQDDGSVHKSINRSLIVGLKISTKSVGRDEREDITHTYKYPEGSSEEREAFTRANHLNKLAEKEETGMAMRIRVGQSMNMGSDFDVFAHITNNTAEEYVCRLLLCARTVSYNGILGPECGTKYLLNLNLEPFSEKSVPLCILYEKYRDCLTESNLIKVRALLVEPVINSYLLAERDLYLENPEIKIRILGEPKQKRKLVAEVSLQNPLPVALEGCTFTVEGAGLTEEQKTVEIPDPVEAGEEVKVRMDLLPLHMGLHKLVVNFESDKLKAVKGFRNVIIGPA
Nature of the test: Colorimetric AL5 transamidase assay of TG2 inhibition kinetics. The test is classed as biochemical. As to conditions: for TG2 Inh. Mode: Irrev = irreversible, None = no inhibition detected up to 350 μM; for kinact/KI / kinact: irreversible inhibition; for TG2 inhibition: up to 360 µM; for kinact: saturation fit. The method, then: All inhibitors synthesised herein were evaluated for inhibition against FXIIIa, using the fluorescence-quenched A101 isopeptidase assay, and against TG2, using the colorimetric AL5 transamidase assay. The assay substrates A101 and AL5 both present labile bonds that are cleaved by the activities of their corresponding transglutaminases, resulting in the release of a fluorophore or chromophore moiety, respectively. The rate of consumption of these assay substrates, indicated by increases in fluorescence or absorbance over time, can be detected for measuring enzyme activity. Assays were run in duplicate at constant reporter substrate concentration with varying concentrations of inhibitor. The type of inhibition was determined through visual inspection of the fluorescence-time curvature; termination of the enzymatic reaction with the substrate at a plateau lower than the no-inhibitor positive control is indicative of irreversible inhibition. On the other hand, convergence to a common plateau indicates reversible inhibition.
A colorimetric transamidase assay using chromogenic substrate AL5 (Cbz-Glu(ɣ-p-nitrophenyl ester)Gly-OH) was used to determine TG2 inhibition kinetics as described previously. In brief, assays were conducted at 25 °C in 96-well plates, and absorbance at 405 nm was monitored continuously using a BioTek Synergy 4 plate reader. For each compound, 6 inhibitor concentrations were tested, along with positive (no inhibitor) and negative (no enzyme, no inhibitor) controls. All assays were run in duplicate as separate independent experiments. Human TG2 expressed and purified as described previously and stored in aqueous buffer at −80 °C, was first thawed and diluted to a working concentration of 50 mU/mL in the buffer. The diluted enzyme solution was stored on ice. The appropriate amount of distilled water, 125 μL of aqueous buffer (111 mM MOPS, 15.6 mM CaCl2, pH 6.9), the desired amount of inhibitor (from a DMSO stock solution), and 5.0 μL of AL5 (from a 5.56 mM DMSO solution) were added in that order to 7 Eppendorf tubes to reach final volumes of 250 μL per tube. After mixing thoroughly, 180 μL of the mixture from each tube was transferred to plate wells. To initiate the assay, 20 μL of the diluted TG2 solution was added using a multichannel pipette to each well except the negative control, which was treated with water. The final reaction conditions were pH 6.9, 50.0 mM MOPS, 7.0 mM CaCl2, 100 μM AL5, and 5 mU/mL TG2. […] Data collection was then initiated after mixing by quick aspiration, and the assay was allowed to run for 20 min.
The type of inhibition for both TG2 and FXIIIa was primarily determined by visual inspection of kinetic traces. […] This assumption was tested and validated with inhibitor 47 through an A101 substrate spike experiment. Additional A101 (5 μL of 4000 μM stock in DMSO) was added to enzymatic reactions lacking in inhibitor (positive control) and pre-treated with inhibitor (50, 100, 150, 200 μM) after the initial reactions were complete and fluorescence plateaus had been reached. Data collection at 37 °C was re-commenced immediately after the addition, and fluorescence was monitored over time as previously described. On the other hand, inhibitors producing kinetic curves in which earlier and lower plateaus in fluorescence or absorbance were observed as inhibitor concentration was increased were assumed to be operating through irreversible time-dependent covalent inactivation. This assumption was tested and validated with inhibitor 23 through an A101 substrate spike experiment in which an additional 5 μL of A101 substrate stock solution (4000 μM in DMSO) was added to the positive control and highest inhibitor concentration (200 μM) reaction. […]

The mark [1] stands for this setting: small molecule series, irreversible KI for 87 and 88.

“Also recorded” adds a separate entry of the source. Starred links: 1 amine or outer side, 2 acyl side, 3 side chain; linkers in the order of their positions; H or OH if unused. Non-standard residues stand in square brackets, D forms with d. Residues, ends and D or L forms follow the SMILES beside them. *: point of attachment. RhodamineB = CCN(CC)c1ccc2c(-c3ccccc3C(=O)*)c3ccc(=[N+](CC)CC)cc-3oc2c1; X1 = COC(=O)/C=C/CC[C@H](N[*:1])C(=O)[*:2]; X2 = COC(=O)C=CCCC[C@H](N[*:1])C(=O)[*:2]; X3 = COC(=O)C=CC[C@H](N[*:1])C(=O)[*:2]; Nle = CCCC[C@H](N)C(=O)O; Orn = NCCC[C@H](N)C(=O)O; Dab = NCC[C@H](N)C(=O)O; Acryloyl = C=CC(=O)*; Ahx = NCCCCCC(=O)O

Take `C=CC(=O)NCC[C@H](NC(=O)[C@@H](CC(=O)O)NC(C)=O)C(=O)N[C@@H](CCCC)C(=O)N[C@@H](CCCC)C(=O)N[C@@H](CC(C)C)C(=O)N1CCC[C@H]1C(=O)N[C@@H](Cc1c[nH]c2ccccc12)C(=O)N1CCC[C@H]1C(=O)O` [Compound 12, Ac-D-Asp-Dab(Acrylamide)-Nle-Nle-Leu-Pro-Trp-Pro-OH] (Ac-[dD][Dab](Acryloyl)[Nle][Nle]LPWP-OH): the “TG2 Inh. Mode” value was “No inhibition; also recorded: None **”.

In the case of `C=CC(=O)NCCC[C@H](NC(=O)[C@@H](CC(=O)O)NC(C)=O)C(=O)N[C@@H](CCCC)C(=O)N[C@@H](CCCC)C(=O)N[C@@H](CC(C)C)C(=O)N1CCC[C@H]1C(=O)N[C@@H](Cc1c[nH]c2ccccc12)C(=O)N1CCC[C@H]1C(=O)O` [Compound 13] (Ac-[dD][Orn](Acryloyl)[Nle][Nle]LPWP-OH), the “TG2 Inh. Mode” value is reported as “No inhibition; also recorded: None **”.

Consider `C=CC(=O)NCCCC[C@H](NC(=O)[C@@H](CC(=O)O)NC(C)=O)C(=O)N[C@@H](CCCC)C(=O)N[C@@H](CCCC)C(=O)N[C@@H](CC(C)C)C(=O)N1CCC[C@H]1C(=O)N[C@@H](Cc1c[nH]c2ccccc12)C(=O)N1CCC[C@H]1C(=O)O` [Compound 14] (Ac-[dD]K(Acryloyl)[Nle][Nle]LPWP-OH), for which the “TG2 Inh. Mode” value was “No inhibition; also recorded: None **”.

Regarding `CCCC[C@H](NC(=O)[C@H](CC=CC(=O)OC)NC(=O)[C@@H](CC(=O)O)NC(C)=O)C(=O)N[C@@H](CCCC)C(=O)N[C@@H](CC(C)C)C(=O)N1CCC[C@H]1C(=O)N[C@@H](Cc1c[nH]c2ccccc12)C(=O)N1CCC[C@H]1C(=O)O` [Compound 45] (Ac-[dD][X3][Nle][Nle]LPWP-OH), the “TG2 Inh. Mode” value was “No inhibition; also recorded: lack of inhibition; also recorded: None **”.

With `CCCC[C@H](NC(=O)[C@H](CCCC=CC(=O)OC)NC(=O)[C@@H](CC(=O)O)NC(C)=O)C(=O)N[C@@H](CCCC)C(=O)N[C@@H](CC(C)C)C(=O)N1CCC[C@H]1C(=O)N[C@@H](Cc1c[nH]c2ccccc12)C(=O)N1CCC[C@H]1C(=O)O` [Compound 47] (Ac-[dD][X2][Nle][Nle]LPWP-OH), the “TG2 Inh. Mode” value is listed as “Irrev” and the kinact/KI is 530 M⁻¹ s⁻¹.

As to `C=CC(=O)NCC(NC(=O)CC(=O)O)C(=O)N1CCN(S(=O)(=O)c2cccc3c(N(C)C)cccc23)CC1` (stereo not drawn) [Compound 71], the TG2 inhibition result (small molecule series) is “No inhibition”.

As for `C=CC(=O)NCC(NC(=O)CC(=O)O)C(=O)N1CCN(C(=O)c2cccc3ccccc23)CC1` (stereo not drawn) [Compound 72], where the note is “small molecule series”, the TG2 inhibition entry is listed as “No inhibition”.

`C=CC(=O)NCC(NC(=O)C1(C(=O)OC)CC1)C(=O)N1CCN(S(=O)(=O)c2cccc3c(N(C)C)cccc23)CC1` (stereo not drawn) [Compound 73]: the TG2 inhibition entry (small molecule series) was “No inhibition”.

As for `C=CC(=O)NCC(NC(=O)C1(C(=O)O)CC1)C(=O)N1CCN(S(=O)(=O)c2cccc3c(N(C)C)cccc23)CC1` [Compound 74, Acid-Cyclopropyl-L-Dap(Acryl)-Piperazine-Dansyl], the TG2 inhibition entry (small molecule series) was “No inhibition”.

In the case of `C=CC(=O)NCC(NC(=O)CCC(=O)O)C(=O)N1CCN(S(=O)(=O)c2cccc3c(N(C)C)cccc23)CC1` [Compound 75, Succinyl-L-Dap(Acryl)-Piperazine-Dansyl], the TG2 inhibition result (small molecule series) is given as “No inhibition”.

Turning to `C=CC(=O)NCC(NC(=O)CCC(=O)O)C(=O)N1CCN(S(=O)(=O)c2cccc3ccccc23)CC1` [Compound 76, Succinyl-L-Dap(Acryl)-Piperazine-Sulfonyl-Naphthalene], the TG2 inhibition result (small molecule series) was “No inhibition”.

`C=CC(=O)NCC(NC(=O)CCC(=O)O)C(=O)N1CCN(C(=O)c2cccc3ccccc23)CC1` [Compound 77, Succinyl-L-Dap(Acryl)-Piperazine-Naphthoyl]: the TG2 inhibition entry (small molecule series) was “No inhibition”.

In the case of `C=CC(=O)NCC(NS(=O)(=O)CC(=O)O)C(=O)N1CCN(S(=O)(=O)c2cccc3c(N(C)C)cccc23)CC1` (stereo not drawn) [Compound 79], the TG2 inhibition result (small molecule series) is “No inhibition”.

As for `C=CC(=O)NC(CNC(=O)CCC(=O)O)C(=O)N1CCN(C(=O)c2cccc3ccccc23)CC1` (stereo not drawn) [Compound 84], under “small molecule series”, the TG2 inhibition entry is recorded as “No inhibition”.

Turning to `COC(=O)C=CCCC(NC(=O)CCC(=O)O)C(=O)N1CCN(C(=O)c2cccc3ccccc23)CC1` (stereo not drawn) [Compound 87], the kinact/KI is 139 M⁻¹ s⁻¹ and the kinact is 0.00199 s⁻¹. For the same molecule, under setting [1], the Ki was found to be 14.3 ± 7 µM.

Take `COC(=O)C=CCCC(NC(=O)c1ccccc1C(=O)O)C(=O)N1CCN(C(=O)c2cccc3ccccc23)CC1` (stereo not drawn) [Compound 88]: the kinact/KI is 104 M⁻¹ s⁻¹ and the inactivation rate constant (kinact) was 0.0022 s⁻¹. Moreover, under setting [1], the KI (inactivation) is 21.2 ± 8.96 µM and the Ki was determined as 21.2 ± 9 µM.

For `CCCC[C@H](NC(=O)[C@H](CC/C=C/C(=O)OC)NC(=O)[C@@H](CC(=O)O)NC(=O)CCCCCNC(=O)[C@@H]1CCCN1C(=O)c1ccccc1-c1c2ccc(=[N+](CC)CC)cc-2oc2cc(N(CC)CC)ccc12)C(=O)N[C@@H](CCCC)C(=O)N[C@@H](CC(C)C)C(=O)N1CCC[C@H]1C(=O)N[C@@H](Cc1c[nH]c2ccccc12)C(=O)N1CCC[C@H]1C(=O)O` [Compound 93] (RhodamineB-P[Ahx][dD][X1][Nle][Nle]LPWP-OH), the kinact/KI is 325 M⁻¹ s⁻¹.

Regarding “Ac-D-Asp-Dap(Acrylamide)-Nle-Nle-Leu-Pro-Trp-Pro-OH [Compound 11]”, the “TG2 Inh. Mode” value is “No inhibition; also recorded: None **”.

Values taken from article PMC9960274, “Peptidic Inhibitors and a Fluorescent Probe for the Selective Inhibition and Labelling of Factor XIIIa Transglutaminase” (Molecules, 2023).
